Measured values taken from patent US20200199530A1, “METHODS OF DIFFERENTIATING STEM CELL-DERIVED ECTODERMAL LINEAGE PRECURSORS” (MEMORIAL SLOAN-KETTERING CANCER CENTER, priority 2017, published 2020).
Entries after “also recorded” stand apart in the source; their conditions may differ. Ends that are not written are not given here.

Key:
Type in all cases: cell-based, human
[1] = system: hPSC-derived pituitary cells; assay: Stimulation of hormone release in vitro (ELISA); details: day 30 cells, CRF 1 μM, Somatocrinin 1 μg/ml, vs solvent control; for ACTH release: Stressin I 2 μM, Urocortin 500 nM, Ghrelin 1 μM
Description: To stimulate hormone release in vitro, cells were differentiated in 24 well plates as described above. On day 30 of differentiation cells were washed once with PBS and 250 μl of fresh medium containing either the solvent or the stimulant were added to each well. After 12 h the supernatant was removed and centrifuged for 5 min at 2000 g to pellet debris. Supernatant was transferred into fresh reaction tubes, flash frozen and stored at −80° C. until ELISA measurements. Stimulants used were: CRF (Tocris, 1 μM), Stressin I (Tocris, 2 μM), Ghrelin (Tocris, 1 μM), Somatocrinin (Accurate Chemical, 1 μg/ml), Nafarelin (Tocris, 1 μM) and Urocortin (Tocris, 500 nM).
Hormone concentration in the supernatant of cells or in animal serum was analyzed using ELISA measurements. Hormone concentration in the cell culture supernatant was assessed using traditional single hormone ELISA Kits according to the manufactures manual. ACTH (Calbiotech, detects rat and human ACTH), hGH (R&D Systems, human specific), FSH (Calbiotech, FSH (lumELISA, human specific) and corticosterone (Abcam). Plates were read using an EnSpire Multimode plate reader (PerkinElmer). Hormone concentration in in vivo samples was analyzed using either traditional ELISA (for ACTH only, serum diluted 1:2) or species specific (human or rat) Milliplex multiplex ELISA using Luminex technology (Millipore). Magnetic bead-based sandwich immunoassay was performed according to the manufactures manual. 25 μl of undiluted serum samples in duplicate wells were analyzed by Luminex FlexMap 3D (Luminex Corp, Austin, Tex.). Cytokine concentrations were determined by Luminex Xponent 4.1 and EMD-Millipore Milliplex Analyst v5.1 using 5-p log analysis.

[2] = system: hPSC (SIX1::H2B-GFP reporter); assay: Cranial placode induction in E6 media, SIX1 positive cells; details: E6 with SB431542 and BMP pulse; FIG. 2G/38B
Description: (§1) All differentiations starting from E8 were dissociated into single cells using EDTA and re-plated at high density in E8 with the ROCK inhibitor (Tocris). Cells were typically seeded at a density of 200,000 cells/cm^2 on Matrigel coated dishes. Switching from E8 to E6 triggered differentiations (i.e. d0). Neuroectoderm (NE) formation was generated by culturing the cells in E6 with 10 μM SB and 500 nM LDN until d12. Neural Crest (NC) was first treated with 10 μM SB, 600 nM CHIR and 1 ng/ml BMP4 from d0-d2. At d3, cells were maintained in 10 μM SB with 1.5 uM CHIR until d12. Lens placode was first treated with 10 μM SB and 5 ng/ml BMP4 from d0-d2. At d3, cells were maintained in 10 μM SB with 50 ng/ml FGF2 until d12. Trigeminal placode was first treated with 10 μM SB and 5 ng/ml BMP4 from d0-d2. At d2, 600 nm CHIR was added. At d3, cells were treated with 10 μM SB and 600 nM CHIR. From d4-d12, cells were treated with 10 μM SB. Finally, non-neural ectoderm (NNE) was treated with 10 μM SB, 10 μM SU5402 and 10 ng/ml BMP4 from d0-d1, and then treated with 10 μM SB and 5 ng/ml BMP4 from d2-d12.
Cranial Placode differentiation. Day 0 (0-24 hrs): Add E6 media containing 5 ng/ml BMP4+10 μM SB to cells.
Day 1 (24-48 hrs): Change media with E6 media containing 5 ng/ml BMP4+10 μM SB to cells.
Day 2 (48-72 hrs): Change media with E6 media containing 5 ng/ml BMP4+10 μM SB to cells. […]

[3] = system: hPSC differentiated towards CP (SIX1); assay: Phenanthroline in CP differentiation: marker expression and SIX1 positive cells; details: for SIX1 positive cells: CP protocol, FIG. 6E, Phenanthroline alone = absence of FGF2, control 18%
Description: as §1
(§2) H9 SIX1 H2B::GFP cells were differentiated into lens placode as described earlier and plated on 96 well plates coated with Matrigel. On day 3 (day before SIX1 H2B::GFP can be detected in individual cells) the medium was additionally supplemented with compounds from the LOPAC library. Two different concentrations (1 μM and 10 μM) per compound were used. Medium was not changed until day 6 of differentiation. On day 6 of differentiation plates were washed once with PBS and cells were fixed with 4% PFA. To increase the signal intensity over background, the cells were stained using an antibody against GFP. After labeling with an appropriate Alexa488-conjugated secondary antibody and the nuclear counterstain DAPI, cells were analyzed using the Meta Express software (Meta-morph) by calculating the percent nuclear GFP signal over DAPI positive cells.

H9 SIX1 H2B::GFP cells = assay: LOPAC small-molecule screen for enhancers of placode fate and hit validation; details: for validation of primary hits: percentage of cells expressing SIX1: CP protocol, FIG. 6C, 13A/13B, 44A/44B; for expression of SIX1 relative to control differentiations (primary screen): LOPAC library, 1 μM and 10 μM, added day 3, read day 6
Description: as §2

hPSCs = assay: Tolerability of small molecules during E6-based differentiation; details: had to be re-titrated

In the case of “Urocortin: stimulant of hormone release (Tocris, 500 nM) (DNPSLSIDLTFHLLRTLLELARTQSQRERAEQNRIIFDSV; ends and bridges not checked; UniProt P55089 83-122, looked up)”, the ACTH release [1] is reported as “specifically induced” and the ACTH release ([1]; listed as urocortin) is reported as “induced release of ACTH”.

FGF2: activator of FGF signaling was tested, and the “SIX1 positive cells after addition of FGF agonist” value [2] was roughly 50% and the SIX1 positive cells [3] was 34%.

With “Somatocrinin: stimulant of hormone release (Accurate Chemical, 1 μg/ml) (YADAIFTNSYRKVLGQLSARKLLQDIMSRQQGESNQERGARARL; ends and bridges not checked; UniProt P01286 32-75, looked up)” the ACTH release [1] was “not”, the ACTH release ([1]; listed as somatocrinin) was “did not trigger ACTH release” and the GH release [1] was “induced”. The GH release ([1]; listed as somatocrinin) was “triggered robust increase in GH release”.

For CN1CCC(c2c[nH]c3ccc(O)cc23)CC1 [BRL-5443], the “validation of primary hits: percentage of cells expressing SIX1” value (H9 SIX1 H2B::GFP cells) was “increased the level of SIX1 expressing CP precursor cells”, the “validation of primary hits: percentage of cells expressing SIX1” value (H9 SIX1 H2B::GFP cells; listed as BRL-54443) was “did not produce a significant difference” and the “expression of SIX1 relative to control differentiations (primary screen)” value (H9 SIX1 H2B::GFP cells) was “increased expression of SIX1 above the levels observed in control differentiations”.

With “Ghrelin: stimulant used (Tocris, 1 μM) (GSSFLSPEHQRVQQRKESKKPPAKLQPR; ends and bridges not checked; UniProt Q9UBU3 24-51, looked up)” the ACTH release [1] was “did not trigger ACTH release and not”.

For c1cnc2c(c1)ccc1cccnc12 [Phenanthroline], the “validation of primary hits: percentage of cells expressing SIX1” value (H9 SIX1 H2B::GFP cells) was “confirmed to reliably enhance the percentage of cells expressing Six1; also recorded: confirmed to trigger a robust increase in the percentage of cells expressing SIX1; also recorded: large majority of cells”, the “expression of SIX1 relative to control differentiations (primary screen)” value (H9 SIX1 H2B::GFP cells) was “increased expression of SIX1 above the levels observed in control differentiations” and the SIX1 positive cells [3] was 69%. For the same compound, the “fold increase of SIX1 positive cells versus control” value ([3]; absence of FGF2, 69% versus 18%) was roughly 4 fold and the “expression of other lineage markers (Sox10, T, MyoD, Sox17)” value ([3]; differentiation towards CP, FIG. 6D) was “without inducing the expression of other lineage markers”.

With Cc1c[nH]c(/C=C2\C(=O)Nc3ccccc32)c1CCC(=O)O [SU5402, 2-[(1,2-Dihydro-2-oxo-3H-indol-3-ylidene)methyl]-4-methyl-1H-pyrrole-3-pr-opanoic acid] the “cell killing at the original (KSR protocol) concentration” value (hPSCs) was “effectively killed the cells”.

In the case of “CRF: stimulant of hormone release (Tocris, 1 μM) (SEEPPISLDLTFHLLREVLEMARAEQLAQQAHSNRKLMEII; ends and bridges not checked; UniProt P06850 154-194, looked up)”, the ACTH release [1] is reported as “induced release of ACTH; also recorded: specifically induced” and the GH release [1] is reported as “not”.
